Data published in US20020115111A1, “Compounds” (SmithKline Beecham Corporation, priority 1994, published 2002).
pIC50: −log10 of the molar value.

Columns and labels:
[1] = target: T1, low affinity rolipram binding form of PDE IV (LPDE IV), human monocyte PDE IV (Homo sapiens, UniProt P27815); test: PDE IV catalytic activity assay (low affinity form); format: biochemical; details: 1 μM [3H]cAMP as substrate
T1 construct: made in house; host or cells: yeast
Description: (§1) Inhibition of PDE IV catalytic activity can thus be used as an index of the potency of compounds at LPDE IV.

[2] = system: high affinity rolipram binding form of PDE IV (HPDE IV); test: [3H]-rolipram binding assay (competition for high affinity site); design: species or system rat; details: for High/Low Ratio (IC50 high affinity form divided by IC50 low affinity form): HPDE IV IC50 / LPDE IV IC50; for pIC50: competition with 1 nM [3H]-rolipram, 1 hour at 30° C.
Method: as §1
The assay was run for 1 hour at 30° C. The reaction was terminated and bound ligand was separated from free ligand using a Brandel cell harvester. Competition for the high affinity binding site was assessed under conditions that were identical to those used for measuring low affinity PDE activity, expect that [^3H]-cAMP was not present.

[3] = system: TNFα production from isolated human monocytes vs acid secretion in isolated rabbit parietal glands; test: therapeutic index, in vitro comparison: suppression of TNFα production vs stimulation of acid secretion; format: cell-based
Method: To determine acid secretion, the gastric glands in combination with [^14C]-aminopyrine, various concentrations of selective PDE IV inhibitors, and a threshold concentration of histamine (0.3-1.0 μM) were incubated at 37° C. on a horizontal shaker (110 cycles/min) for 20 minutes according to the procedures of Sack and Spenney (1982). Samples were then centrifuged and radioactivity in aliquots of the supernatant fraction and pellet were determined. Aminopyrine ratios were calculated as described by Sack and Spenney (1982). The data were expressed as a percent of a response produced by a maximal concentration of histamine (100 μM). EC50 values were determined by linear interpolation using the maximum response obtained for each compound.
TNFα inhibition was assessed in human peripheral blood monocytes which were purified (Collata) from freshly obtained buffy coats or plasma-phoresis residues of blood from normal human donors. Monocytes were plated at density of 1×10^6 cells/ml medium/well in 24-well multi-dishes. […]
Levels of TNFα were measured using a ELISA (Winston) employing a murine monoclonal anti-human TNFα antibody (see below) as the capture antibody and a polyclonal rabbit anti-human TNFα as the second antibody. […] TNFα levels in samples were calculated from a standard curve generated with recombinant human TNFα produced in E. coli. […]

acid secretion = details: rats, particularly in combination with an activator of adenylate cyclase such as histamine; cited from earlier work
[4] = clinical studies; cited from earlier work
[5] = system: [3H]-rolipram binding sites in rat brain homogenates; test: high affinity [3H]-rolipram binding sites in rat brain homogenates (Schneider 1986); details: Kd vs Ki
Description: In 1986, Schneider and colleagues described the presence and characteristics of high affinity, stereoselective [^3H]-rolipram binding sites in rat brain homogenates, Although it was assumed that these binding sites represented the catalytic site of the rat brain “noncalmodulin-dependent, cAMP phosphodiesterase” (i.e. PDE IV), a striking anomaly was apparent in the data.

T1 sequence (P27815 1-686 isoform P27815-3): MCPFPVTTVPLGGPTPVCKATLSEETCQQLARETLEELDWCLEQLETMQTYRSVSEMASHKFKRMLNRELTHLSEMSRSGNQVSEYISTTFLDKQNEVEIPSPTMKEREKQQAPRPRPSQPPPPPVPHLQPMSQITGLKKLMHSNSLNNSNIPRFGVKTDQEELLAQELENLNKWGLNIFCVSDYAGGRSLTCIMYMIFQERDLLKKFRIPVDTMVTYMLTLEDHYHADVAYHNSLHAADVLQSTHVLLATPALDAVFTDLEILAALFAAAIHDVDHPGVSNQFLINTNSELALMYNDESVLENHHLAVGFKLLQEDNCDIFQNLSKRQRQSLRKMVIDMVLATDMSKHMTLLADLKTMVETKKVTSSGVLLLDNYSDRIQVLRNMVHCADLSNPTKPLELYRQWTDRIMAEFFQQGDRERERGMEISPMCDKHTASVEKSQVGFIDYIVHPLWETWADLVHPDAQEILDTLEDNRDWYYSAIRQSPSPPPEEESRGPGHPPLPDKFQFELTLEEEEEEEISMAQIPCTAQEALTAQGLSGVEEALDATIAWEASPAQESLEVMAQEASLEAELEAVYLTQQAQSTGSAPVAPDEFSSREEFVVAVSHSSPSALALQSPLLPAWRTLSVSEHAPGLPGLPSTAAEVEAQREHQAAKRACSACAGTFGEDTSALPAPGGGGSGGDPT

| SMILES | pIC50 [1] | High/Low Ratio (IC50 high affinity form divided by IC50 low affinity form) [2] | pIC50 [2] | improvement in therapeutic index in comparison with R-rolipram [3] [fold] | effect on acid secretion (acid secretion) | side effects [4] | difference in affinity for the binding site versus effect on catalytic activity [5] [fold] |
| --- | --- | --- | --- | --- | --- | --- | --- |
| COc1ccc([C@@H]2CC[C@H](C(=O)O)C2)cc1OC1CCCC1 (relative stereo) [cis-[3-(3-cyclopentyloxy-4-methoxyphenyl)cyclopentane-1-carboxylate]] | 5.57 |  |  |  |  |  |  |
| COc1ccc(C2CN(Cc3ccc(N)cc3)C(=O)N2)cc1OC1CCCC1 (stereo not drawn) [1-(4-aminobenzyl)-4-(3-cyclopentyloxy-4-methoxyphenyl)-2-imidazolidinone] | 5.85 | 0.07 | 8.00 |  |  |  |  |
| COc1ccc(C2CCC(c3nnn[nH]3)C2)cc1OC1CCCC1 (stereo not drawn) [1-(5-tetrazole)-3-(3-cyclopentyloxy-4-methoxyphenyl)cyclopentane] | 5.96 | 0.0018 | 8.70 |  |  |  |  |
| COC(=O)C1CC(C#N)(c2ccc(OC(F)F)c(OCC3CC3)c2)CCC1=O (stereo not drawn) [2-carbomethoxy-4-cyano-4-(3-cyclopropylmethoxy-4-difluoromethoxyphenyl)cyclohexan-1-one] | 6.85 | 3.571 | 6.30 | 100 |  |  |  |
| COc1ccc(C2CCN(Cc3ccc(NC(=NC#N)SC)cc3)C2=O)cc1OC1CCCC1 (stereo not drawn) [3-(cyclopentyloxy-4-methoxyphenyl)-1-(4-N′-[N2-cyano-S-methyl-isothioureido]benzyl)-2-pyrrolidone] | 7.00 | 0.30 | 7.52 |  |  |  |  |
| CCOC(=O)C=C1C[C@H](c2ccc(OC)c(OC3CCCC3)c2)CN1 [(R)-(+)-ethyl [4-(3-cyclopentyloxy-4-methoxyphenyl)pyrrolidine-2-ylidene]acetate] | 6.85 | 2.143 | 6.52 |  |  |  |  |
| CCOC(=O)C=C1C[C@@H](c2ccc(OC)c(OC3CCCC3)c2)CN1 [(S)-(-)-ethyl[4-(3-cyclopentyloxy-4-methoxphenyl)pyrrolidine-2-ylidene]acetate] | 6.34 | .98 | 6.35 |  |  |  |  |
| CC(C)Cn1c(=O)n(C)c(=O)c2[nH]cnc21 [IBMX, reference compound] | 4.54 | 0.698 | 4.69 |  |  |  |  |
| COc1ccc(CCNC(=O)C(N)=O)cc1OC1CCCC1 [N-[2-(3-cyclopentyloxy-4-methoxyphenyl)ethyl]oxamide] | 6.05 | 0.013 | 7.92 |  |  |  |  |
| CCCCOc1cc(CC2CNC(=O)N2)ccc1OC (stereo not drawn) [Ro 20-1724] |  |  |  |  | enhance acid secretion in rats |  |  |
| N#CC1(c2ccc(OC(F)F)c(OCC3CC3)c2)CCC(O)CC1 (stereo not drawn) [cis-[4-cyano-4-(3-cyclopropylmethoxy-4-difluoromethoxyphenyl)cyclohexan-1-ol]] | 7.68 |  | 7.40 | 100 |  |  |  |
| CCCCn1c(=O)c2c(ncn2CC(C)=O)n(CCCC)c1=O [denbufylline, 7-acetonyl,1,3-dibutylxanthine, reference compound] |  |  | 7.30 |  |  | may include pyrosis, nausea and emesis |  |
| OCCN(CCO)c1nc(N2CCCCC2)c2nc(N(CCO)CCO)nc(N3CCCCC3)c2n1 [dipyridamole, 2,2′,2″,2′″-[(4,8-dipiperidinopyrimido[5,4-d]pyrimidine-2-6-diyl)dinitrilo]tetraethanol, reference compound] | 5.28 | 6.25 | 4.49 |  |  |  |  |
| COc1ccc(C2CNC(=O)C2)cc1OC1CCCC1 (stereo not drawn) [rolipram] |  |  |  |  | enhance acid secretion in rats | has psychotropic activity and produces gastrointestinal effects, e.g., pyrosis, nausea and emesis | 1000 |
| COc1cc2c(cc1OC)-c1c/c(=N\c3c(C)cc(C)cc3C)n(C)c(=O)n1CC2 [trequinsin, 2,3,6,7-tetrahydro-2-(mesitylimino)-9,10 dimethoxy-3-methyl-4H-primido[6,1-a]isoquinoline-4-one, reference compound] |  |  | 5.30 |  |  |  |  |
